# Experimental data published in PMC12349723, “Computationally accelerated identification of P-glycoprotein inhibitors” (PLOS One, 2025).
# “And” between values parts separate entries of the source, which are not always exact repeats. Equal values may be shown once. Read-outs that look alike come from different tables or passages of the source.
# Key:
# A2780-ADR cells = assay: MTT viability assay, reversal of MDR in P-gp overexpressing A2780-ADR cells; type: cell-based, human; details: for Reversal of MDR in A2780-ADR cells: 15 µM compound with or without 500 nM PTX, 48 h, MTT; for Mean % Survival / % Survival (individual sample) / viability at 15 µM: A2780-ADR cells; for Mean % Survival / viability at 15 µM: mean of 12 samples; for % Survival (individual sample): single samples (trials 1-3, samples 1-4); for viability at 15 µM: Homo sapiens, A2780 ADR, read-out: Mean % Survival
# In short: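 Viability was assessed by MTT reduction (absorbance 570 nm, 4 h MTT) after 48 h compound treatment, alone or with chemotherapeutic, of parental A2780 or P-gp-overexpressing A2780-ADR cells seeded at 3,000 per well. Percent survival relative to DMSO-treated or DMSO-plus-chemotherapeutic controls.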
# P-gp [1] = molecular target: T1, P-gp (Homo sapiens, UniProt P08183); assay: Top Hit classification from combined in vitro criteria; details: reverse MDR, do not increase PTX toxicity in chemo-sensitive cancer cells, non-toxic to noncancerous cells, not P-gp substrates
# T1 construct: The MDR, P-gp overexpressing DU145-TXR cells were maintained under positive selection pressure; endogenous in cells; host or cells: DU145-TXR (paclitaxel-resistant sub-line of DU145 human prostate cancer cells)
# T1 sequence (P08183 whole entry): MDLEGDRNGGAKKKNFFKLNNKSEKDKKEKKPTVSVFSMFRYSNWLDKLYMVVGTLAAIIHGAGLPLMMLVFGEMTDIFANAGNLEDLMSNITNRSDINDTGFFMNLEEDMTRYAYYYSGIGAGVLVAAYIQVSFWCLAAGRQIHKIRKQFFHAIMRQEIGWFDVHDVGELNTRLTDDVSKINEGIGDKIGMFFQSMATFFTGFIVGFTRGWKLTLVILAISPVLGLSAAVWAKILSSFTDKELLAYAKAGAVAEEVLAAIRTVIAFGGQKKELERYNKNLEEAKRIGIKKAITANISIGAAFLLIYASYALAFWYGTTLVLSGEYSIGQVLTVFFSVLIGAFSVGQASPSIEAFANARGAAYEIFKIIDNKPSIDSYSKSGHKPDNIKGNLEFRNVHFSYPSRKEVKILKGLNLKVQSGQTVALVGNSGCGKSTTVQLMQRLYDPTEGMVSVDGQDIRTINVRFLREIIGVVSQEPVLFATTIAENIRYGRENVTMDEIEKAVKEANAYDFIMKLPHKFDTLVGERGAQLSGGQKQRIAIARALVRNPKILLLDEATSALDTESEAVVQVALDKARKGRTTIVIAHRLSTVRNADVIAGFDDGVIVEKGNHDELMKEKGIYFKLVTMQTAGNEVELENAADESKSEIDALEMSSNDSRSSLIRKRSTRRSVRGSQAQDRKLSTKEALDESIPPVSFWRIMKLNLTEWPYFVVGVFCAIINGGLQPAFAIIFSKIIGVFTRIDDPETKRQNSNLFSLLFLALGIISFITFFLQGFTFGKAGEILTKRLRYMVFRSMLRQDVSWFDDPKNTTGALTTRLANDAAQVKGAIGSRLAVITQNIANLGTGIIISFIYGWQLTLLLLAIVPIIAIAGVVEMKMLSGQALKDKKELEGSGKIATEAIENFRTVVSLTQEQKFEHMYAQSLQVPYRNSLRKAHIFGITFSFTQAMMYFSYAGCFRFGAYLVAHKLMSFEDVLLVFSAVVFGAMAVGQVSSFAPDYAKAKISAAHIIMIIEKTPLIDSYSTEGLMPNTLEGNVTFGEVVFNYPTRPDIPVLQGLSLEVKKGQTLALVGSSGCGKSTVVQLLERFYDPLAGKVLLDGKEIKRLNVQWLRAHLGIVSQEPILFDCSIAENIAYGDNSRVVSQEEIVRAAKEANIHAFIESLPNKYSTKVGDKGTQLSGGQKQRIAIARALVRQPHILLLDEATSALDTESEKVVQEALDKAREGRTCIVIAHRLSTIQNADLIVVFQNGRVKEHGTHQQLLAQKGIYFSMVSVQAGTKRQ
# P-gp [2] = assay: SWISS-ADME prediction of P-gp transport substrate; details: prediction compared to the LC-MS/MS intracellular accumulation data
# Text: Identifying P-gp inhibitors that are not transport substrates remains inherently challenging. To that end, computational tools such as the SWISS-ADME server attempt to use a molecule’s unique chemical and structural characteristics to predict whether it is likely to be a P-gp transport substrate. Our LC-MS/MS assays allowed us to retroactively test the validity of predictions from SWISS-ADME. […] Alternative identifiers for the molecules identified in this study are shown in S7 Table.
# S1 Table. Known P-gp Inhibitors and Predicted Chemical Properties. A non-exhaustive list of known P-gp inhibitors and their selected chemical properties ^[64, 65]. Clinical trial outcomes were adapted from ^[10, 11]. Compounds were evaluated using the SWISS-ADME server ^[54]. […] “Predicted P-gp Substrate” - predicted by SWISS-ADME to be a transport substrate of P-gp. “Known P-gp Substrate” – In addition to being P-gp inhibitors, these molecules are: known transport substrates of P-gp, known non-transport substrates of P-gp, unknown whether it is a transport substrate of P-gp ^[66-68]. If the molecule is designated in a specific generation of P-gp inhibitors - First Generation P-gp inhibitors, Second generation P-gp inhibitors, Third generation P-gp inhibitors.
# DU145-TXR cells = assay: MTT viability assay, reversal of MDR (re-sensitization to paclitaxel) in P-gp overexpressing DU145-TXR cells; type: cell-based, human; details: for % Survival, mean / % Survival: 15 µM compound + 500 nM PTX (Paclitaxel, Taxol); for % Survival, mean / % Survival / viability at 15 µM: DU145-TXR; for Re-sensitization of DU145-TXR cells to PTX (reversal of MDR): 15 µM compound with or without 500 nM PTX, 48 h, MTT, re-sensitization = 30% or greater decrease in cell viability; for viability at 15 µM: Homo sapiens, 15 µM Compound Alone
# In short: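 MTT viability testing was done on P-gp overexpressing, multidrug resistant DU145-TXR human prostate cancer cells. They were kept in 10 nM paclitaxel and seeded at 3,000 cells per well in complete RPMI. Cells were exposed to compound, with or without paclitaxel, for 48 hours. MTT was then added for 4 hours, formazan was dissolved in DMSO, and absorbance was read at 570 nm. Survival was expressed relative to control-treated cells.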
# [3] = mean of 8 samples, read-out: % Survival, mean
# [4] = trial 1, sample 1, read-out: % Survival
# [5] = trial 1, sample 2, read-out: % Survival
# [6] = trial 1, sample 3, read-out: % Survival
# [7] = trial 1, sample 4, read-out: % Survival
# [8] = trial 2, sample 1, read-out: % Survival
# [9] = trial 2, sample 2, read-out: % Survival
# [10] = trial 2, sample 3, read-out: % Survival
# [11] = trial 2, sample 4, read-out: % Survival
Structure (SMILES),Reversal of MDR in A2780-ADR cells (A2780-ADR cells),Mean % Survival (A2780-ADR cells; 15 µM compound + 500 nM PTX),% Survival (individual sample) (A2780-ADR cells; 15 µM compound + 500 nM PTX),% Survival (individual sample) (A2780-ADR cells; 15 µM compound alone),viability at 15 µM (A2780-ADR cells; 15 µM compound alone),Top Hit (P-gp [1]),Correct P-gp Substrate Prediction? (P-gp [2]),"% Survival, mean (DU145-TXR cells; mean of 8 samples)","% Survival (DU145-TXR cells; trial 1, sample 1)","% Survival (DU145-TXR cells; trial 1, sample 2)","% Survival (DU145-TXR cells; trial 1, sample 3)","% Survival (DU145-TXR cells; trial 1, sample 4)","% Survival (DU145-TXR cells; trial 2, sample 1)","% Survival (DU145-TXR cells; trial 2, sample 2)","% Survival (DU145-TXR cells; trial 2, sample 3)","% Survival (DU145-TXR cells; trial 2, sample 4)",Re-sensitization of DU145-TXR cells to PTX (reversal of MDR) (DU145-TXR cells),viability at 15 µM (DU145-TXR cells; [3]),viability at 15 µM (DU145-TXR cells; [4]),viability at 15 µM (DU145-TXR cells; [5]),also measured
"O=C(c1nc(-c2ccccn2)no1)N1CCN(c2nsc3ccccc23)CC1 [Compound 124, O=C(N1CCN(CC1)c1nsc2ccccc12)c1nc(no1)-c1ccccn1]",reversed MDR in A2780-ADR cells,52.5%,58%,94% and 91%,92.5%,No,No,75.6%,62%,72%,95%,73%,91%,86%,67%,58%,re-sensitized DU145-TXR cells to PTX,98.6%,96%,102%,viability at 15 µM (DU145-TXR cells; [6]): 79%; viability at 15 µM (DU145-TXR cells; [7]): 95%; viability at 15 µM (DU145-TXR cells; [8]): 114%; viability at 15 µM (DU145-TXR cells; [9]): 94%; viability at 15 µM (DU145-TXR cells; [10]): 103%; viability at 15 µM (DU145-TXR cells; [11]): 106%
"O=C(NCc1cccc(F)c1)c1nnn2c1Sc1c(C(=O)NCc3cccc(F)c3)nnn1CC2 [Compound 122, Fc1cccc(CNC(=O)c2nnn3CCn4nnc(C(=O)NCc5cccc(F)c5)c4Sc23)c1]",reversed MDR in A2780-ADR cells,45.8%,50% and 51% and 45%,104% and 83%,89.7%,No,Yes,60.4%,61%,55%,61%,62%,65%,63%,54%,61%,re-sensitized DU145-TXR cells to PTX,106%,102%,105%,viability at 15 µM (DU145-TXR cells; [6]): 85%; viability at 15 µM (DU145-TXR cells; [7]): 102%; viability at 15 µM (DU145-TXR cells; [8]): 123%; viability at 15 µM (DU145-TXR cells; [9]): 107%; viability at 15 µM (DU145-TXR cells; [10]): 106%; viability at 15 µM (DU145-TXR cells; [11]): 114%
"O=C(c1nc(-c2ccc3cc[nH]c3c2)no1)N1CCN(c2nsc3ccccc23)CC1 [Compound 70, O=C(N1CCN(CC1)c1nsc2ccccc12)c1nc(no1)-c1ccc2cc[nH]c2c1]",reversed MDR in A2780-ADR cells,62.6%,62% and 59% and 61%,116%,114%,Yes,No,47.0%,51%,55%,50%,54%,41%,36%,46%,43%,re-sensitized DU145-TXR cells to PTX,91.3%,92%,103%,viability at 15 µM (DU145-TXR cells; [6]): 101%; viability at 15 µM (DU145-TXR cells; [7]): 96%; viability at 15 µM (DU145-TXR cells; [8]): 90%; viability at 15 µM (DU145-TXR cells; [9]): 83%; viability at 15 µM (DU145-TXR cells; [10]): 85%; viability at 15 µM (DU145-TXR cells; [11]): 80%
